Consider eleven molecules from patent US20240024488A1, “COMPOUNDS AND USES THEREOF” (Foghorn Therapeutics Inc., priority 2020, published 2024).

For assay [1], the target named is T1, HiBit-BRM fusion protein (Homo sapiens, UniProt P51531).
T1 construct: expressed in transfected cells
In words: HiBiT-BRM cell-based degradation assay (Nano-Glo HiBiT Lytic Detection, 24 h). The note with it: HeLa cell line expressing HiBiT-BRM; for DC50: read-out: BRM HiBit Degradation IC50. A digest of the protocol: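 Luminescence from reconstituted NanoBiT luciferase in lysed HeLa HiBiT-BRM cells served as the measure of remaining BRM after 24 h treatment. Compounds were tested from 30 μM final downward in 3-fold steps. DMSO and 2 μM of a standard BRM/BRG1 degrader defined the scale limits.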
Background: With HiBiT, luminescence reflects the tagged protein that the partner subunit can reach.

Assay [2] addresses T2, HiBit-BRG1 fusion protein (Homo sapiens, UniProt P51532).
T2 construct: expressed in transfected cells
In words: HiBiT-BRG1 cell-based degradation assay (Nano-Glo HiBiT Lytic Detection, 24 h). The note with it: HeLa cell line expressing HiBit-BRG1 and LgBit; for Dmax: read-out: BRG1 HiBit Degradation Maximum (%); for DC50: read-out: BRMG1 HiBit Degradation IC50. In short, it runs like this:
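Stable HeLa line co-expressing HiBit-BRG1 and LgBit, 5000 cells/well, treated 24 h in a tissue culture incubator. Lysed with Nano-Glo HiBiT lytic reagent, luminescence read. % degradation normalized to DMSO (high control) and 2 μM reference BRM/BRG1 degrader (low control).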

T1 sequence (P51531 whole entry, the tested form may be a part): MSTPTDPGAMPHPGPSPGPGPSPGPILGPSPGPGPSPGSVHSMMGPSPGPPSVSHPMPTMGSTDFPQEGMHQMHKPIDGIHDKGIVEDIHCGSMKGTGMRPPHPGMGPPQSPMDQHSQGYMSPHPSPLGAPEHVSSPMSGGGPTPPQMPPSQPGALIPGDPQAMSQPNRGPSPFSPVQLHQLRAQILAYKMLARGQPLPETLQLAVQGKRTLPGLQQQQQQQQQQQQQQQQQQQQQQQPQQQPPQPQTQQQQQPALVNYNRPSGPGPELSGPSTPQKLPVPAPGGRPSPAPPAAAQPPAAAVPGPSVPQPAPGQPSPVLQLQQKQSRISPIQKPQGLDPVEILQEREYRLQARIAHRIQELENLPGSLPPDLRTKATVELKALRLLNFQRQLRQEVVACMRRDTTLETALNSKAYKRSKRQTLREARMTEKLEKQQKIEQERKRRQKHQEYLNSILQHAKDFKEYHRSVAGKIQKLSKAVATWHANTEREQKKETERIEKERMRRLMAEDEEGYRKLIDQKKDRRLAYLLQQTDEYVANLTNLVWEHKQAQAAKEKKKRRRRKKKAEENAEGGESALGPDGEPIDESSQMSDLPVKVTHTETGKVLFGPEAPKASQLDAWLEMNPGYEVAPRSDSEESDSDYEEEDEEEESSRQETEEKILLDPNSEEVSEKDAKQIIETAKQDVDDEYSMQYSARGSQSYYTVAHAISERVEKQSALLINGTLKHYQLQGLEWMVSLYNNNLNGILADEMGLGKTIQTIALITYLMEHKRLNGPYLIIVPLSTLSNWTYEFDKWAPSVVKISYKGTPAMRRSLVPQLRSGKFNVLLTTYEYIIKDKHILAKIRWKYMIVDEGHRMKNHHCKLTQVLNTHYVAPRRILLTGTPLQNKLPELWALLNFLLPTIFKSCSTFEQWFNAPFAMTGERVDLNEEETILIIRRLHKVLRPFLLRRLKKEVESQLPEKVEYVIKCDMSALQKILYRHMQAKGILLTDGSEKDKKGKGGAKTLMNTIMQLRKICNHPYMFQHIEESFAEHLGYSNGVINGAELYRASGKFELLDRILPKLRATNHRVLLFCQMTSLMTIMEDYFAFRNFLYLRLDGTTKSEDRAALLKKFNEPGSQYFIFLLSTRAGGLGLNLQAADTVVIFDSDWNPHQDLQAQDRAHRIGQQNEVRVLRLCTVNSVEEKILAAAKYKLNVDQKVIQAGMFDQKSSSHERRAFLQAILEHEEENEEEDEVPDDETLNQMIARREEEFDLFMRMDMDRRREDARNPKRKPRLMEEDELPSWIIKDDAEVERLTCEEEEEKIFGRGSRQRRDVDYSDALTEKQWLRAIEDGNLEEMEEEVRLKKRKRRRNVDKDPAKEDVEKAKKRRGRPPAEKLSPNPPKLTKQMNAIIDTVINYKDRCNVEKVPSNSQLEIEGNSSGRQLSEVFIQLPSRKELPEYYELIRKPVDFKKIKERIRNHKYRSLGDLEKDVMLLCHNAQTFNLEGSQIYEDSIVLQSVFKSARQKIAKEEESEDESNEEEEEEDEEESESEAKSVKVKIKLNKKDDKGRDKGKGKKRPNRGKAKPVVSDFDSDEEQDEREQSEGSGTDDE
T2 sequence (P51532 whole entry, the tested form may be a part): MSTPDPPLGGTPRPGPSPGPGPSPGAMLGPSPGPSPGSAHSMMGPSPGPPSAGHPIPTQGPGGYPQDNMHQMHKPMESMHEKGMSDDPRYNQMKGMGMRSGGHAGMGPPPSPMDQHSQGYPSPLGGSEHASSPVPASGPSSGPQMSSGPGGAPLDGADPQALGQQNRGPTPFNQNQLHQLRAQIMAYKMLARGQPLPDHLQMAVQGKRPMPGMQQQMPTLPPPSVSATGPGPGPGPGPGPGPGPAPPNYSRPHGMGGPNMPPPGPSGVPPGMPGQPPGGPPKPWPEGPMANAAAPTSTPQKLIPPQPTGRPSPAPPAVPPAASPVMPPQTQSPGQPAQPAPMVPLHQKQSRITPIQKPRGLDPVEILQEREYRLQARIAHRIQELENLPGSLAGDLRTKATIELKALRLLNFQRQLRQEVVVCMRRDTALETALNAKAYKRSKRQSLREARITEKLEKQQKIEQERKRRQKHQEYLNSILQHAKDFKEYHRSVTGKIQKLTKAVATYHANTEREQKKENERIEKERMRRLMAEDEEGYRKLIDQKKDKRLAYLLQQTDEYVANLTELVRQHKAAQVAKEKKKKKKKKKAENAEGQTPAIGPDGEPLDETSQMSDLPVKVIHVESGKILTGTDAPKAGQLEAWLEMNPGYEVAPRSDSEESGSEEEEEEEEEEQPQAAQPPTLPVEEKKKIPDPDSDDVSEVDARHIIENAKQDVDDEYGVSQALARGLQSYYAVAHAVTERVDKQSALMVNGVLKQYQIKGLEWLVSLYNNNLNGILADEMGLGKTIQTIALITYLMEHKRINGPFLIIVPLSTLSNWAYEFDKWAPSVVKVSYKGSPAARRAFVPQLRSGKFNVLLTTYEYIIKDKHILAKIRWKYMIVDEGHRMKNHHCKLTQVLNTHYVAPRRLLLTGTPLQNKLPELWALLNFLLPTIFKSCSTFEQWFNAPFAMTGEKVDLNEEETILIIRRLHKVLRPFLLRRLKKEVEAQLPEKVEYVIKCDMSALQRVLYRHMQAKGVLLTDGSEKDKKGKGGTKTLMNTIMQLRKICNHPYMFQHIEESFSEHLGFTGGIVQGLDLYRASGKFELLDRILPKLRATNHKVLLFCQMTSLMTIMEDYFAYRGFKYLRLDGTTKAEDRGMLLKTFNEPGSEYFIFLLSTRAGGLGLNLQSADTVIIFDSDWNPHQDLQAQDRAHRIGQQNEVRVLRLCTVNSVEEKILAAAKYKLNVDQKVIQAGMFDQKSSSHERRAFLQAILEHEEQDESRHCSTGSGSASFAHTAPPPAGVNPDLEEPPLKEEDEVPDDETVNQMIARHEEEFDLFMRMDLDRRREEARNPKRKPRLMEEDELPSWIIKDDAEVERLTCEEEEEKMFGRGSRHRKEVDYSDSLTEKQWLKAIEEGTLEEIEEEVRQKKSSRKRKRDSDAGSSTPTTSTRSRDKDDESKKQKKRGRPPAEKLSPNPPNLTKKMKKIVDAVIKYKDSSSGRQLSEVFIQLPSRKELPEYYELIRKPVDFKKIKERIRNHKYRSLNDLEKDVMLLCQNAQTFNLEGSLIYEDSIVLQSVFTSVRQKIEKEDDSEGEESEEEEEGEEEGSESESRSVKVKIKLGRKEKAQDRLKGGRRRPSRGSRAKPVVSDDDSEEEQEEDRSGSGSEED

With `Cc1ncsc1-c1ccc([C@H](C)NC(=O)[C@@H]2C[C@@H](O)CN2C(=O)[C@@H](c2cc(N3CCN(CC45CC(c6cc7cc(-c8ccccc8O)nnc7[nH]6)(C4)C5)CC3)no2)C(C)C)cc1` (single isomer, unassigned) [Compound 233], in assay [1], the “BRM HiBit Degradation Maximum (%)” value is “A (“A” indicates maximum degradation ≥ 75%)” and the DC50 is more than 10 nM. Moreover, in assay [2], the Dmax is more than 75% and the DC50 is more than 10 nM.

Consider `Cc1ncsc1-c1ccc([C@H](C)NC(=O)[C@@H]2C[C@@H](O)CN2C(=O)[C@@H](c2cc(OCCN3CC(c4cc5cc(-c6cc(F)ccc6O)nnc5[nH]4)C3)no2)C(C)C)cc1` (racemic) [Compound 288, (2S,4R)-1-((R)-2-(3-(2-(3-(3-(5-fluoro-2-hydroxyphenyl)-7H-pyrrolo[2,3-c]pyridazin-6-yl)azetidin-1-yl)ethoxy)isoxazol-5-yl)-3-methylbutanoyl)-4-hydroxy-N-((S)-1-(4-(4-methylthiazol-5-yl)phenyl)ethyl)pyrrolidine-2-carboxamide], for which, in assay [1], the “BRM HiBit Degradation Maximum (%)” value is on record as “A (“A” indicates maximum degradation ≥ 75%)” and the DC50 was more than 100 nM. Besides, the Dmax in assay [2] is less than 50%.

As to `Cc1ncsc1-c1ccc([C@H](C)NC(=O)[C@@H]2C[C@@H](O)CN2C(=O)[C@@H](c2cc(OCCN3CC(Oc4c[nH]c5nnc(-c6ccccc6O)cc45)C3)no2)C(C)C)cc1` (racemic) [Compound 139, (2S,4R)-4-hydroxy-1-[(2R)-2-{3-[2-(3-{[3-(2-hydroxyphenyl)-7H-pyrrolo[2,3-c]pyridazin-5-yl]oxy}azetidin-1-yl)ethoxy]-1,2-oxazol-5-yl}-3-methylbutanoyl]-N-[(1S)-1-[4-(4-methyl-1,3-thiazol-5-yl)phenyl]ethyl]pyrrolidine-2-carboxamide], in assay [1], the “BRM HiBit Degradation Maximum (%)” value was “B (“B” indicates maximum degradation ≥ 50%)” and the DC50 was more than 100 nM. Also, in assay [2], the Dmax was less than 50%.

Turning to `Cc1ncsc1-c1ccc(CNC(=O)[C@@H]2C[C@@H](O)CN2C(=O)[C@@H](NC(=O)CN2CC(c3cc4cc(-c5ccccc5O)nnc4[nH]3)C2)C(C)(C)C)cc1` (racemic) [Compound 61, (2S,4R)-4-hydroxy-1-((S)-2-(2-(3-(3-(2-hydroxyphenyl)-7H-pyrrolo[2,3-c]pyridazin-6-yl)azetidin-1-yl)acetamido)-3,3-dimethylbutanoyl)-N-(4-(4-methylthiazol-5-yl)benzyl)pyrrolidine-2-carboxamide], in assay [1], the “BRM HiBit Degradation Maximum (%)” value is given as “A (“A” indicates maximum degradation ≥ 75%)” and the DC50 is more than 1000 nM. Moreover, in assay [2], the Dmax is more than 75% and the DC50 is more than 1000 nM.

The IC50 is the point on the concentration scale where inhibition reaches its midpoint. Lower therefore signals greater potency. Consider `Cc1ncsc1-c1ccc([C@H](C)NC(=O)[C@@H]2C[C@@H](O)CN2C(=O)[C@@H](c2cc(OCCN3C[C@H]4C[C@@H](c5c(C)[nH]c6nnc(-c7ccccc7O)cc56)C[C@H]4C3)no2)C(C)C)cc1` [Compound 109, (2S,4R)-4-hydroxy-1-((R)-2-(3-(2-((3aR,5R,6aS)-5-(3-(2-hydroxyphenyl)-6-methyl-7H-pyrrolo [2,3-c]pyridazin-5-yl)hexahydrocyclopenta[c]pyrrol-2(1H)-yl)ethoxy)isoxazol-5-yl)-3-methylbutanoyl)-N-((S)-1-(4-(4-methylthiazol-5-yl)phenyl)ethyl)pyrrolidine-2-carboxamide], for which, in assay [1], the “BRM HiBit Degradation Maximum (%)” value is “A (“A” indicates maximum degradation ≥ 75%)” and the IC50 was more than 10 nM. In addition, the “BRG1 HiBit Degradation Maximum (%)” value in assay [2] was “C (“C” indicates maximum degradation < 50%)”.

As for `O=C1CCC(N2C(=O)c3cccc(NCCCCCCCCCCC(=O)N4CC(c5cc6cc(-c7ccccc7O)nnc6[nH]5)C4)c3C2=O)C(=O)N1` (centres unmarked) [Compound 28, 2-(2,6-dioxopiperidin-3-yl)-4-((11-(3-(3-(2-hydroxyphenyl)-7H-pyrrolo[2,3-c]pyridazin-6-yl)azetidin-1-yl)-11-oxoundecyl)amino)isoindoline-1,3-dione], in assay [1], the “BRM HiBit Degradation Maximum (%)” value is listed as “C (“C” indicates maximum degradation < 50%)”. Further, the Dmax in assay [2] is less than 50%.

Consider `Cc1ncsc1-c1ccc(CNC(=O)[C@@H]2C[C@@H](O)CN2C(=O)[C@@H](NC(=O)CCCCCCCCCCCCCCCCC(=O)N2CC(c3cc4cc(-c5ccccc5O)nnc4[nH]3)C2)C(C)(C)C)cc1` [Compound 19, (2S,4R)-4-hydroxy-1-((S)-2-(18-(3-(3-(2-hydroxyphenyl)-7H-pyrrolo[2,3-c]pyridazin-6-yl)azetidin-1-yl)-18-oxooctadecanamido)-3,3-dimethylbutanoyl)-N-(4-(4-methylthiazol-5-yl)benzyl)pyrrolidine-2-carboxamide], for which the “BRM HiBit Degradation Maximum (%)” value in assay [1] is on record as “C (“C” indicates maximum degradation < 50%)”. In assay [2], the Dmax was less than 50%.

Turning to `Cc1ncsc1-c1ccc(CNC(=O)[C@@H]2C[C@@H](O)CN2C(=O)[C@@H](NC(=O)CCCCCCCCC(=O)N2CC(c3c[nH]c4nnc(-c5ccccc5O)cc34)C2)C(C)(C)C)cc1` [Compound 43, (2S,4R)-4-hydroxy-1-((S)-2-(10-(3-(3-(2-hydroxyphenyl)-7H-pyrrolo[2,3-c]pyridazin-5-yl)azetidin-1-yl)-10-oxodecanamido)-3,3-dimethylbutanoyl)-N-(4-(4-methylthiazol-5-yl)benzyl)pyrrolidine-2-carboxamide], the “BRM HiBit Degradation Maximum (%)” value in assay [1] was “C (“C” indicates maximum degradation < 50%)”. Also, the Dmax in assay [2] is less than 50%.

`Cc1ncsc1-c1ccc([C@H](C)NC(=O)[C@@H]2C[C@@H](O)CN2C(=O)[C@@H](c2cc(OCCN3CC[C@H](c4c(C)[nH]c5nnc(-c6ccccc6O)cc45)C3)no2)C(C)C)cc1` (single isomer, unassigned) [Compound 241]: in assay [1], the “BRM HiBit Degradation Maximum (%)” value is “B (“B” indicates maximum degradation ≥ 50%)” and the DC50 is more than 10 nM. In assay [2], the Dmax is less than 50%.

Consider `Cc1ncsc1-c1ccc([C@H](C)NC(=O)[C@@H]2C[C@@H](O)CN2C(=O)[C@@H](c2cc(OCCN3CC[C@H](c4c[nH]c5nnc(-c6ccccc6O)cc45)C3)no2)C(C)C)cc1` (racemic) [Compound 292, (2S,4R)-4-hydroxy-1-((R)-2-(3-(2-((R)-3-(3-(2-hydroxyphenyl)-7H-pyrrolo[2,3-c]pyridazin-5-yl)pyrrolidin-1-yl)ethoxy)isoxazol-5-yl)-3-methylbutanoyl)-N-((S)-1-(4-(4-methylthiazol-5-yl)phenyl)ethyl)pyrrolidine-2-carboxamide], for which, in assay [1], the “BRM HiBit Degradation Maximum (%)” value is “B (“B” indicates maximum degradation ≥ 50%)” and the DC50 was more than 100 nM. Moreover, the Dmax in assay [2] is less than 50%.

In the case of `Cc1ncsc1-c1ccc([C@H](C)NC(=O)[C@@H]2C[C@@H](O)CN2C(=O)[C@@H](c2cc(OCCNC(=O)[C@H]3C[C@]4(Cc5cc(-c6ccccc6O)nnc5N4)C3)no2)C(C)C)cc1` (racemic) [Compound 71, (1S,3r)-N-(2-((5-((R)-1-((2S,4R)-4-hydroxy-2-(((S)-1-(4-(4-methylthiazol-5-yl)phenyl)ethyl)carbamoyl)pyrrolidin-1-yl)-3-methyl-1-oxobutan-2-yl)isoxazol-3-yl)oxy)ethyl)-3′-(2-hydroxyphenyl)-5′,7′-dihydrospiro[cyclobutane-1,6′-pyrrolo[2,3-c]pyridazine]-3-carboxamide], in assay [1], the “BRM HiBit Degradation Maximum (%)” value is recorded as “A (“A” indicates maximum degradation ≥ 75%)” and the DC50 was more than 100 nM. Moreover, the Dmax in assay [2] is less than 50%.
